Measured values reported in article PMC1500806, “Carrageenan Is a Potent Inhibitor of Papillomavirus Infection” (PLoS Pathogens, 2006).
≈ marks a conversion by molar mass, not a printed value. Like-named read-outs stand apart in the source and are kept apart here. Positions of bridges follow the written chain, without caps; N, C: chain ends. Non-standard residues stand in square brackets, D forms with d. Residues, ends and D or L forms follow the SMILES beside them. *: point of attachment. Ileψ(thiazoline)Cys = CC[C@H](C)[C@H](N)C1=N[C@H](C(=O)*)CS1; dOrn = NCCC[C@@H](N)C(=O)O

Tests used:
HeLa cells = assay: Cytotoxicity (WST-1 turnover and/or cell morphology); format: cell-based
Procedure: (§1) Compounds were tested using a previously described PsV-based papillomavirus inhibition assay. Briefly, HeLa cells were plated at 6,000 cells/well in 50 μl of medium in 96-well plates. Candidate inhibitors were dissolved at 1–10 mg/ml (or reconstituted as directed by manufacturer) in sterile water or appropriate solvent, then subjected to a ten-point three-fold serial dilution covering an appropriate concentration range. Diluted candidate inhibitor (50 μl) was added to preplated HeLa cells, followed by 50 μl of diluted PsV stock. The cells were incubated for 24 h, fed by addition of 100 μl of DMEM-10, then subjected to flow cytometric analysis 48–56 h after infection. IC50 values and 95% CI were determined using Prism (GraphPad Software, San Diego, California, United States) to calculate a variable slope sigmoidal dose-response curve.
(§2) Cytotoxicity was defined as a >50% reduction in the net turnover of the metabolic substrate WST-1 (Roche, Indianapolis, Indiana, United States) and/or by the appearance of dramatic alterations in the microscopic appearance of cell morphology at the time of harvest.

[1] = as above; format: cell-based; details: human, HeLa cells; >50% reduction in WST-1 turnover and/or altered cell morphology
Procedure: as §1, §2

[2] = >50% reduction in WST-1 turnover and/or altered cell morphology

Molecule | CC50 [1] [µg/mL] | also measured
CCCCCCCCCCCCOS(=O)(=O)[O-].[Na+] [Sodium dodecyl sulfate] |  | Cytotoxicity (HeLa cells): 333 µg/mL
N=C(N)NCCC[C@H](NC(=O)[C@H](CCCNC(=N)N)NC(=O)[C@H](CCCNC(=N)N)NC(=O)[C@H](CCCNC(=N)N)NC(=O)[C@H](CCCNC(=N)N)NC(=O)[C@H](CCCNC(=N)N)NC(=O)[C@@H](N)CCCNC(=N)N)C(=O)O [Poly-arginine7] | > 100 | 
Gelatin |  | Cytotoxicity (HeLa cells; [2]): >100 µg/mL
CCCCS(=N)(=O)CCC(N)C(=O)O (stereo not shown) [Buthionine sulfoximine (BSO), Buthionine sulfoximine] |  | Cytotoxicity (HeLa cells; human): >7 µg/mL
O=[N+]([O-])c1ccc(Cl)c([N+](=O)[O-])c1 [1-Chloro-2,4-dinitrobenzene (DNCB), 1-Chloro-2,4-dinitrobenzene] |  | Cytotoxicity (HeLa cells; [2]): 7 µg/mL
CC[C@H](C)[C@H](NC(=O)CN)C(=O)NCC(=O)N[C@@H](C)C(=O)N[C@H](C(=O)N[C@@H](CC(C)C)C(=O)N[C@@H](CCCCN)C(=O)N[C@H](C(=O)N[C@@H](CC(C)C)C(=O)N[C@H](C(=O)N[C@H](C(=O)NCC(=O)N[C@@H](CC(C)C)C(=O)N1CCC[C@H]1C(=O)N[C@@H](C)C(=O)N[C@@H](CC(C)C)C(=O)N[C@H](C(=O)N[C@@H](CO)C(=O)N[C@@H](Cc1c[nH]c2ccccc12)C(=O)N[C@H](C(=O)N[C@@H](CCCCN)C(=O)N[C@@H](CCCNC(=N)N)C(=O)N[C@@H](CCCCN)C(=O)N[C@@H](CCCNC(=N)N)C(=O)N[C@@H](CCC(N)=O)C(=O)N[C@@H](CCC(N)=O)C(N)=O)[C@@H](C)CC)[C@@H](C)CC)[C@@H](C)O)[C@@H](C)O)C(C)C)C(C)C [Melittin] | 4 (≈ 1.41 µM) | 
Cl.N=C(N)N [Guanidine hydrochloride] |  | Cytotoxicity (HeLa cells): >475 µg/mL
CC[C@H](C)[C@H](NC(=O)[C@H](CCCCN)NC(=O)[C@H](CCCCN)NC(=O)[C@H](Cc1ccccc1)NC(=O)[C@H](CC(C)C)NC(=O)[C@H](CCCCN)NC(=O)[C@H](Cc1c[nH]c2ccccc12)NC(=O)[C@@H](N)CCCCN)C(=O)NCC(=O)N[C@@H](C)C(=O)N[C@H](C(=O)N[C@@H](CC(C)C)C(=O)N[C@@H](CCCCN)C(=O)N[C@H](C(=O)N[C@@H](CC(C)C)C(N)=O)C(C)C)C(C)C [Cecropin A-Mellitin hybrid] (H-KWKLFKKIGAVLKVL-NH2; N-terminus and C-terminus assumed) | 11 (≈ 6.21 µM) | 
CC[C@H](C)[C@H](NC(=O)CNC(=O)[C@H](CC(=O)O)NC(=O)[C@H](CCCNC(=N)N)NC(=O)[C@@H](NC(=O)[C@H](CC(N)=O)NC(=O)[C@H](CCC(N)=O)NC(=O)CNC(=O)[C@@H](NC(=O)[C@H](CCCCN)NC(=O)[C@H](CCC(=O)O)NC(=O)[C@@H](NC(=O)[C@H](CCCCN)NC(=O)[C@H](CCCCN)NC(=O)[C@H](Cc1ccccc1)NC(=O)[C@H](CC(C)C)NC(=O)[C@H](CCCCN)NC(=O)[C@H](Cc1c[nH]c2ccccc12)NC(=O)[C@@H](N)CCCCN)[C@@H](C)CC)C(C)C)[C@@H](C)CC)C(=O)N[C@H](C(=O)N[C@@H](CCCCN)C(=O)N[C@@H](C)C(=O)NCC(=O)N1CCC[C@H]1C(=O)N[C@@H](C)C(=O)N[C@H](C(=O)N[C@@H](C)C(=O)N[C@H](C(=O)N[C@H](C(=O)NCC(=O)N[C@@H](CCC(N)=O)C(=O)N[C@@H](C)C(=O)N[C@H](C(=O)N[C@@H](CCC(N)=O)C(=O)N[C@H](C(=O)N[C@@H](C)C(=O)N[C@@H](CCCCN)C(N)=O)[C@@H](C)CC)[C@@H](C)O)C(C)C)C(C)C)C(C)C)[C@@H](C)CC [Cecropin A (porcine)] (H-KWKLFKKIEKVGQNIRDGIIKAGPAVAVVGQATQIAK-NH2; N-terminus and C-terminus assumed) | > 100 | 
CSCC[C@H](NC(=O)[C@H](CCCNC(=N)N)NC(=O)[C@H](Cc1c[nH]c2ccccc12)NC(=O)[C@H](CCC(N)=O)NC(=O)[C@H](Cc1c[nH]c2ccccc12)NC(=O)[C@H](CCCNC(=N)N)NC(=O)[C@@H](N)CCCNC(=N)N)C(=O)N[C@@H](CCCCN)C(=O)N[C@@H](CCCCN)C(=O)N[C@@H](CC(C)C)C(=O)NCC(=O)O [Lactoferricin B 4–14 fragment] (H-RRWQWRMKKLG-OH; N-terminus and C-terminus assumed) | > 15 | 
O[C@@H](CS)[C@@H](O)CS [Dithiothreotol] |  | Cytotoxicity (HeLa cells): >100 µg/mL
Gramicidins A-D [Gramicidins A-D (B. Brevis)] |  | Cytotoxicity (HeLa cells; [2]): 1.2 µg/mL
Poly-(arginine-aminocaproyl) |  | Cytotoxicity (HeLa cells; [2]): >100 µg/mL
CC[C@H](C)[C@@H]1NC(=O)CNC(=O)[C@H](CCCNC(=N)N)NC(=O)[C@H](Cc2ccc(O)cc2)NC(=O)[C@@H]2CSSC[C@H](NC1=O)C(=O)N[C@@H](Cc1ccc(O)cc1)C(=O)N[C@@H](CCCNC(=N)N)C(=O)N[C@@H](CCCNC(=N)N)C(=O)N[C@H](C(=O)N[C@@H](CCCNC(=N)N)C(N)=O)CSSC[C@H](NC(=O)[C@H](Cc1c[nH]c3ccccc13)NC(=O)[C@@H](N)CCCCN)C(=O)N[C@@H](Cc1ccccc1)C(=O)N[C@@H](CCCNC(=N)N)C(=O)N[C@@H](C(C)C)C(=O)N2 [Tachyplesin-I] (H-KWCFRVCYRGICYRRCR-NH2; disulfide 3-16, 7-12) | 100 (≈ 44.2 µM) | 
C[C@@H]1[C@H](O)[C@@H](C)/C=C/C=C/CC/C=C/C=C/C=C/C=C/C(O[C@H]2O[C@H](C)[C@@H](O)[C@H](N)[C@@H]2O)CC2O[C@](O)(CC(O)C(O)CCC(O)CC(O)CC(O)CC(=O)O[C@H]1C)CC(O)C2C(=O)O (stereo partly shown) [Nystatin] |  | Cytotoxicity (HeLa cells): 100 µg/mL
O=C(O)c1cc(SSc2ccc([N+](=O)[O-])c(C(=O)O)c2)ccc1[N+](=O)[O-] [Ellman's reagent] |  | Cytotoxicity (HeLa cells): 1,300 μg/ml
CC[C@H](C)[C@H](NC(=O)CN)C(=O)NCC(=O)N[C@@H](CCCCN)C(=O)N[C@@H](Cc1ccccc1)C(=O)N[C@@H](CC(C)C)C(=O)N[C@@H](Cc1c[nH]cn1)C(=O)N[C@@H](CO)C(=O)N[C@@H](C)C(=O)NCC(=O)N[C@@H](CCCCN)C(=O)N[C@@H](Cc1ccccc1)C(=O)NCC(=O)N[C@@H](CCCCN)C(=O)N[C@@H](C)C(=O)N[C@@H](Cc1ccccc1)C(=O)N[C@H](C(=O)NCC(=O)N[C@@H](CCC(=O)O)C(=O)N[C@H](C(=O)N[C@@H](CCSC)C(=O)N[C@@H](CCCCN)C(=O)N[C@@H](CO)C(=O)O)[C@@H](C)CC)C(C)C [Magainin-I] (H-GIGKFLHSAGKFGKAFVGEIMKS-OH) | > 100 | 
CC[C@H](C)[C@H](N)C1=N[C@H](C(=O)N[C@@H](CC(C)C)C(=O)N[C@H](CCC(=O)O)C(=O)N[C@H](C(=O)N[C@H]2CCCCNC(=O)[C@H](CC(N)=O)NC(=O)[C@@H](CC(=O)O)NC(=O)[C@H](Cc3cnc[nH]3)NC(=O)[C@@H](Cc3ccccc3)NC(=O)[C@H]([C@@H](C)CC)NC(=O)[C@@H](CCCN)NC2=O)[C@@H](C)CC)CS1 [Bacitracin] ({Ileψ(thiazoline)Cys}-L[dE]IK[dOrn]I[dF]H[dD]N; lactam 4-C (inferred)) | > 420 | 
OCCS [2-Mercaptoethanol] |  | Cytotoxicity (HeLa cells): >100 µg/mL
CC(C)[C@H](NC(=O)[C@H](CCCCN)NC(=O)CNC(=O)CNC(=O)[C@H](CCC(N)=O)NC(=O)[C@H](CCCCN)NC(=O)CNC(=O)[C@H](CCCNC(=N)N)NC(=O)CNC(=O)[C@@H](N)CCCCN)C(=O)N[C@@H](CCCNC(=N)N)C(=O)N[C@@H](C)C(=O)N[C@@H](CCCCN)C(=O)N[C@@H](C)C(=O)N[C@@H](CCCCN)C(=O)N[C@H](C(=O)N[C@@H](CCCNC(=N)N)C(=O)N[C@@H](CO)C(=O)N[C@@H](CO)C(=O)O)[C@@H](C)O [Parasin-I] (H-KGRGKQGGKVRAKAKTRSS-OH) | > 100 | 
C[C@@H](O)[C@H](N)C(=O)N[C@@H](CCCCN)C(=O)N1CCC[C@H]1C(=O)N[C@@H](CCCNC(=N)N)C(=O)O [Tuftsin] (H-TKPR-OH; N-terminus and C-terminus assumed) | > 100 | 
CC(C)C[C@H](NC(=O)[C@H](C)NC(=O)[C@H](CCCCN)NC(=O)[C@H](CCCCN)NC(=O)[C@H](CC(C)C)NC(=O)[C@H](C)NC(=O)[C@H](CCCCN)NC(=O)[C@H](CCCCN)NC(=O)[C@H](CC(C)C)NC(=O)[C@H](CCCCN)NC(=O)[C@H](CCCCN)NC(=O)[C@H](CC(C)C)NC(=O)[C@H](C)NC(=O)[C@H](CCCCN)NC(=O)[C@H](CCCCN)NC(=O)[C@H](CC(C)C)NC(=O)[C@H](C)NC(=O)[C@H](CCCCN)NC(=O)[C@H](CC(C)C)NC(=O)[C@H](C)NC(=O)[C@H](CC(C)C)NC(=O)[C@H](C)NC(=O)[C@@H](N)Cc1ccccc1)C(=O)O [Hecate] (H-FALALKALKKALKKLKKALKKAL-OH; N-terminus and C-terminus assumed) | 17 (≈ 6.7 µM) | 
